Test results: publication PMC8580996, “2-Oxoglutarate derivatives can selectively enhance or inhibit the activity of human oxygenases” (Nature Communications, 2021)
Where “and” joins values, the source holds several entries; their conditions need not be identical. Identical values can stand only once.

Assays:
AspH = biological target: T1, AspH (Homo sapiens, UniProt Q12797); assay: Competition assay in a single reaction vessel, AspH-catalyzed hydroxylation (SPE-MS); format: biochemical
T1 construct: the tetratricopeptide repeat domain (His6-AspH315-758), was produced and purified as previously reported; made in house
T1 sequence (Q12797 315-758): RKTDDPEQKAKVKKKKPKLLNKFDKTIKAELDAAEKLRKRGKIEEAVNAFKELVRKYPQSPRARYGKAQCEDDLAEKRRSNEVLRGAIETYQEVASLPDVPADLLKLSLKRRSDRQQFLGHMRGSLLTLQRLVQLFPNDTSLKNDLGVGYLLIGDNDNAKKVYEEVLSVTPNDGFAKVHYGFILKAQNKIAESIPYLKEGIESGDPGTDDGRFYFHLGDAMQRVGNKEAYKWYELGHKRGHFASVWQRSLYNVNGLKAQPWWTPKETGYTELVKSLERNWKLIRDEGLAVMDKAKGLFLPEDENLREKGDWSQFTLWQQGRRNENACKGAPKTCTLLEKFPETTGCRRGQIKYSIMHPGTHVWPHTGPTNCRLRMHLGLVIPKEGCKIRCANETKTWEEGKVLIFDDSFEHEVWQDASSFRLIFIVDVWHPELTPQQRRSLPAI

FIH = FIH (Homo sapiens, UniProt Q9NWT6); assay: FIH steady-state kinetic parameters (SPE-MS, initial hydroxylation rates); format: biochemical; parameters: slope of initial reaction rate: unit not given here
Outline: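 FIH-catalysed CA1-20 peptide hydroxylation with varied 2OG or 2OG derivative, 20 μM ammonium iron(II) sulfate plus L-ascorbic acid, in 50 mM Tris, 50 mM NaCl, pH 7.5, 20 °C, monitored by SPE-MS (~1 sample/40 s). Initial rates fitted to Michaelis–Menten for vapp and Kapp; independent triplicates.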

FIH, sequence (Q9NWT6 whole entry): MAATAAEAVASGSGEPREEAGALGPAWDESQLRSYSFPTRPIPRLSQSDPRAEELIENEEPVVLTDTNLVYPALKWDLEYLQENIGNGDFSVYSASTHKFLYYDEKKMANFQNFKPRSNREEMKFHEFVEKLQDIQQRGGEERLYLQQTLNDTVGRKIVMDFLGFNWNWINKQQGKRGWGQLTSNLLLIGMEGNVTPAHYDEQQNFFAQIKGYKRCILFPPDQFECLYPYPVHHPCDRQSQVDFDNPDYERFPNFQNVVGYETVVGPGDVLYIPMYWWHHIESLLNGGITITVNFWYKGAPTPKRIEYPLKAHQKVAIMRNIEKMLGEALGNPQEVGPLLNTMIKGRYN

## CC(CC(=O)O)C(=O)C(=O)O (centres unmarked) [compound 1, 3-methyl-2OG]
AspH; Fig 2c, 20 μM 1, AspH, 3.5005 min
  substrate hydroxylation (% conversion): 100
AspH; Fig 2c, 20 μM 1, AspH, 4.20083 min
  substrate hydroxylation (% conversion): 100
AspH; Fig 2c, 20 μM 1, AspH, 5.60117 min
  substrate hydroxylation (% conversion): 100
AspH; Fig 2c, 20 μM 1, AspH, 6.29967 min
  substrate hydroxylation (% conversion): 100
AspH; Fig 2c, 20 μM 1, AspH, 7.00033 min
  substrate hydroxylation (% conversion): 100
AspH; Fig 2c, 20 μM 1, AspH, 7.7025 min
  substrate hydroxylation (% conversion): 100
AspH; Fig 2c, 20 μM 1, AspH, 8.40233 min
  substrate hydroxylation (% conversion): 100
AspH; Fig 2c, 20 μM 1, AspH, 9.10283 min
  substrate hydroxylation (% conversion): 100
AspH; Fig 2c, 20 μM 1, AspH, 9.806 min
  substrate hydroxylation (% conversion): 100
AspH; Fig 2c, 20 μM 1, AspH, […]
  substrate hydroxylation (% conversion): 100
AspH; Fig 2c, 20 μM 1, within ~2 min
  AspH-catalyzed hFX-EGFD1_86–124-4Ser hydroxylation: > 95%
FIH; 0.5 uM compound 1, time 2.098 min
  SPE-MS determined concentration of hydroxylated HIF-1a peptide: 0.06331 µM and 0.08965 µM and 0.06287 µM
FIH; 0.5 uM compound 1, time 2.797 min
  SPE-MS determined concentration of hydroxylated HIF-1a peptide: 0.08372 µM and 0.1109 µM and 0.07695 µM
FIH; 0.5 uM compound 1, time 3.49667 min
  SPE-MS determined concentration of hydroxylated HIF-1a peptide: 0.08826 µM and 0.1256 µM and 0.08643 µM
FIH; 1 uM compound 1, time 0.699833 min
  SPE-MS determined concentration of hydroxylated HIF-1a peptide: 0.05043 µM and 0.061 µM and 0.05097 µM
FIH; 1 uM compound 1, time 2.098 min
  SPE-MS determined concentration of hydroxylated HIF-1a peptide: 0.09957 µM and 0.1098 µM and 0.1306 µM
FIH; 1 uM compound 1, time 2.797 min
  SPE-MS determined concentration of hydroxylated HIF-1a peptide: 0.1199 µM and 0.1466 µM and 0.1681 µM
FIH; 1 uM compound 1, time 3.49667 min
  SPE-MS determined concentration of hydroxylated HIF-1a peptide: 0.1336 µM
FIH; 2 uM compound 1, time 0.699833 min
  SPE-MS determined concentration of hydroxylated HIF-1a peptide: 0.07885 µM and 0.08056 µM and 0.05916 µM
FIH; 2 uM compound 1, time 2.098 min
  SPE-MS determined concentration of hydroxylated HIF-1a peptide: 0.1678 µM and 0.1886 µM and 0.1681 µM
FIH; 2 uM compound 1, time 2.797 min
  SPE-MS determined concentration of hydroxylated HIF-1a peptide: 0.2164 µM and 0.22 µM and 0.1894 µM
FIH; 2 uM compound 1, time 3.49667 min
  SPE-MS determined concentration of hydroxylated HIF-1a peptide: 0.2473 µM and 0.2744 µM and 0.2266 µM
FIH; 4 uM compound 1, time 0.699833 min
  SPE-MS determined concentration of hydroxylated HIF-1a peptide: 0.1172 µM and 0.1135 µM and 0.107 µM
FIH; 4 uM compound 1, time 2.098 min
  SPE-MS determined concentration of hydroxylated HIF-1a peptide: 0.2558 µM and 0.2656 µM and 0.234 µM
FIH; 4 uM compound 1, time 2.797 min
  SPE-MS determined concentration of hydroxylated HIF-1a peptide: 0.3116 µM and 0.3222 µM and 0.2973 µM
FIH; 4 uM compound 1, time 3.49667 min
  SPE-MS determined concentration of hydroxylated HIF-1a peptide: 0.3622 µM and 0.3831 µM and 0.3473 µM
FIH; 8 uM compound 1, time 0.699833 min
  SPE-MS determined concentration of hydroxylated HIF-1a peptide: 0.1456 µM and 0.1338 µM and 0.1272 µM
FIH; 8 uM compound 1, time 2.098 min
  SPE-MS determined concentration of hydroxylated HIF-1a peptide: 0.3135 µM and 0.3095 µM and 0.2806 µM
FIH; 8 uM compound 1, time 2.797 min
  SPE-MS determined concentration of hydroxylated HIF-1a peptide: 0.4067 µM and 0.3823 µM and 0.3379 µM
FIH; 8 uM compound 1, time 3.49667 min
  SPE-MS determined concentration of hydroxylated HIF-1a peptide: 0.4757 µM and 0.4602 µM and 0.409 µM
FIH; 16 uM compound 1, time 0.699833 min
  SPE-MS determined concentration of hydroxylated HIF-1a peptide: 0.1765 µM and 0.1666 µM and 0.1574 µM
FIH; 16 uM compound 1, time 2.098 min
  SPE-MS determined concentration of hydroxylated HIF-1a peptide: 0.4139 µM and 0.367 µM and 0.3575 µM
FIH; 16 uM compound 1, time 2.797 min
  SPE-MS determined concentration of hydroxylated HIF-1a peptide: 0.521 µM and 0.462 µM and 0.4549 µM
FIH; 16 uM compound 1, time 3.49667 min
  SPE-MS determined concentration of hydroxylated HIF-1a peptide: 0.6245 µM and 0.5486 µM and 0.5372 µM
FIH; 32 uM compound 1, time 0.699833 min
  SPE-MS determined concentration of hydroxylated HIF-1a peptide: 0.1826 µM and 0.1844 µM and 0.1573 µM
FIH; 32 uM compound 1, time 2.098 min
  SPE-MS determined concentration of hydroxylated HIF-1a peptide: 0.3964 µM and 0.4231 µM and 0.3597 µM
FIH; 32 uM compound 1, time 2.797 min
  SPE-MS determined concentration of hydroxylated HIF-1a peptide: 0.4756 µM and 0.5305 µM and 0.4654 µM
FIH; 32 uM compound 1, time 3.49667 min
  SPE-MS determined concentration of hydroxylated HIF-1a peptide: 0.5827 µM and 0.6364 µM and 0.5668 µM
FIH; CA1-20, 1 μM 1
  slope of initial reaction rate: 0.003599 and 0.003561 and 0.003828
FIH; CA1-20, 2 μM 1
  slope of initial reaction rate: 0.005878 and 0.006514 and 0.003549
FIH; CA1-20, 4 μM 1
  slope of initial reaction rate: 0.007274 and 0.005274 and 0.008096
FIH; CA1-20, 8 μM 1
  slope of initial reaction rate: 0.01215 and 0.01007 and 0.00891
FIH; HIF-1a788-822, 0.5 μM 1
  slope of initial reaction rate: 0.000467 and 0.000683 and 0.000488
FIH; HIF-1a788-822, 1 μM 1
  slope of initial reaction rate: 0.000739 and 0.000996 and 0.000679
FIH; HIF-1a788-822, 2 μM 1
  slope of initial reaction rate: 0.001185 and 0.001312 and 0.001139
FIH; HIF-1a788-822, 4 μM 1
  slope of initial reaction rate: 0.001713 and 0.001863 and 0.001678
FIH; HIF-1a788-822, 8 μM 1
  slope of initial reaction rate: 0.002198 and 0.002166 and 0.001912
FIH; HIF-1a788-822, 16 μM 1
  slope of initial reaction rate: 0.002859 and 0.002469 and 0.002609
FIH; HIF-1a788-822, 32 μM 1
  slope of initial reaction rate: 0.002446 and 0.002883 and 0.002629

## O=C(O)CCC(=O)C(=O)O [2OG, 2-Oxoglutarate]
AspH; Fig 2b, 20 μM 2OG, AspH, 1.4395 min
  substrate hydroxylation (% conversion): 100
AspH; Fig 2b, 20 μM 2OG, AspH, 1.6805 min
  substrate hydroxylation (% conversion): 100
AspH; Fig 2b, 20 μM 2OG, AspH, 1.9205 min
  substrate hydroxylation (% conversion): 100
AspH; Fig 2b, 20 μM 2OG, AspH, 2.40217 min
  substrate hydroxylation (% conversion): 100
AspH; Fig 2b, 20 μM 2OG, AspH, 2.64367 min
  substrate hydroxylation (% conversion): 100
AspH; Fig 2b, 20 μM 2OG, AspH, 2.88417 min
  substrate hydroxylation (% conversion): 100
AspH; Fig 2b, 20 μM 2OG, AspH, 3.1255 min
  substrate hydroxylation (% conversion): 100
AspH; Fig 2b, 20 μM 2OG, AspH, 3.3665 min
  substrate hydroxylation (% conversion): 100
AspH; Fig 2b, 20 μM 2OG, AspH, 3.60917 min
  substrate hydroxylation (% conversion): 100
AspH; Fig 2b, 20 μM 2OG, within about 1 min
  AspH-catalyzed hFX-EGFD1_86–124-4Ser hydroxylation: > 95%
AspH; Fig 4a, 0.5 mM 2OG, absence of 13
  time to apparent completion of AspH substrate hydroxylation: ~ 1 min
AspH; Supplementary Fig 8a, 20 μM 2OG, after 2 min
  AspH conversion: > 95%
FIH; CA1-20, 0.25 μM 2OG
  slope of initial reaction rate: 0.01003 and 0.007495
FIH; CA1-20, 0.5 μM 2OG
  slope of initial reaction rate: 0.01547 and 0.01452 and 0.0138
FIH; CA1-20, 1 μM 2OG
  slope of initial reaction rate: 0.01838 and 0.01865 and 0.02116
FIH; CA1-20, 2 μM 2OG
  slope of initial reaction rate: 0.02416 and 0.02022 and 0.02356
FIH; CA1-20, 4 μM 2OG
  slope of initial reaction rate: 0.02388 and 0.01977 and 0.02365
FIH; CA1-20, 8 μM 2OG
  slope of initial reaction rate: 0.02261 and 0.02524
FIH; HIF-1a788-822, 0.1 μM 2OG
  slope of initial reaction rate: 0.000581 and 0.000778 and 0.00072
FIH; HIF-1a788-822, 0.25 μM 2OG
  slope of initial reaction rate: 0.001141 and 0.001302 and 0.001382
FIH; HIF-1a788-822, 0.5 μM 2OG
  slope of initial reaction rate: 0.001962 and 0.002167 and 0.002275
FIH; HIF-1a788-822, 1 μM 2OG
  slope of initial reaction rate: 0.003115 and 0.003005 and 0.00301
FIH; HIF-1a788-822, 2 μM 2OG
  slope of initial reaction rate: 0.00418 and 0.004157 and 0.004411
FIH; HIF-1a788-822, 4 μM 2OG
  slope of initial reaction rate: 0.004637 and 0.004674 and 0.005127
FIH; HIF-1a788-822, 8 μM 2OG
  slope of initial reaction rate: 0.004319 and 0.005019 and 0.005929
FIH; HIF-1a788-822, 16 μM 2OG
  slope of initial reaction rate: 0.00539 and 0.005468 and 0.006359
FIH; HIF-1a788-822, 32 μM 2OG
  slope of initial reaction rate: 0.006447 and 0.005635
FIH; HIF-1α788–822 substrate
  FIH Kmapp: 0.84 µM
